# Experimental data taken from patent US7795220B2, “Conformationally constrained parathyroid hormones with alpha-helix stabilizers” (The General Hospital Corporation, priority 2003, dated 2010).
# Non-standard residues stand in square brackets, D forms with d. Residues, ends and D or L forms follow the SMILES beside them. hArg = N=C(N)NCCCC[C@H](N)C(=O)O; Ac5c = NC1(C(=O)O)CCCC1; Aib = CC(C)(N)C(=O)O
# Columns and labels:
# hP1R-delNt = target: T1, hP1R-delNt (Homo sapiens, UniProt Q03431); experiment: cAMP stimulation in LdelNt-2 cells; format: cell-based
# T1 construct: expressed in transfected cells
# T1 sequence (Q03431 with tags, fused parts or gaps limits assumed): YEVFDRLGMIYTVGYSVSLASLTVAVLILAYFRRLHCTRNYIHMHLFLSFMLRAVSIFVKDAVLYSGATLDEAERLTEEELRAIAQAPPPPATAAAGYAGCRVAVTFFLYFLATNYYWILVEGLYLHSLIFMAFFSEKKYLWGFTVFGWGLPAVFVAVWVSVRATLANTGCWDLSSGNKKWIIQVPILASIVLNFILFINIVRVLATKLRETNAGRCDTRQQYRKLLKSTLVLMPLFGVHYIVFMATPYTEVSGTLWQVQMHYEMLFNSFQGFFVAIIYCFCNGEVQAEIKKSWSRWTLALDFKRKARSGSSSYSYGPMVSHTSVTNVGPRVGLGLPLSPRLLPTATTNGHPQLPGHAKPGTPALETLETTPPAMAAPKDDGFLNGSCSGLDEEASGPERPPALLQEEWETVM
# Excerpt: Cell Culture. The cell line HKRK-B28 (Takasu, H., et al., J. Bone Miner. Res. 14:11-20 (1999)) was derived from the porcine kidney cell line, LLC-PK1 by stable transfection with plasmid DNA encoding a recombinant P1R chimera comprised of the opposum P1R from the N-terminus to the mid region of TM3 and the rat P1R from the mid region of TM3 to the C-terminus. The surface density of the P1R in these cells is ˜280,000 receptors per cell. The clonal cell line LdelNt-2 was derived from LLC-PK, cells via stable transfection with a plasmid encoding P1R-delNt, a recombinant human PTH-1 receptor construct in which most of the amino-terminal extracellular domain is deleted. These cells, as well as COS-7 cells and SaOS-2-B10 cells, were cultured at […] in T-75 flasks ([…]) in Dulbecco's modified Eagle's medium (DMEM) supplemented with fetal bovine serum (10%), penicillin G (20 units/ml), streptomycin sulfate (20 μg/ml) and amphotericin B (0.05 μg/ml) in a humidified atmosphere containing 5% CO2. Stock solutions of EGTA/trypsin and antibiotics were from GLBCO; fetal bovine serum was from Hyclone Laboratories (Logan, Utah). COS-7 cells sub-cultured in 24-well plates were transfected with plasmid DNA (200 ng per well) encoding the wild-type human P1R or truncated human P1R deleted for residues (24-181) (Shimizu, M., et al., J. Biol. Chem. 275:21836-21843 (2000)) that was purified by cesium chloride/ethidium bromide density gradient centrifugation, and FuGENE 6 transfection reagent (Roche Indianapolis Ind.) according to the manufacturer's recommended procedure. All cells, in 24-well plates, were treated with fresh media and shifted to 33° C. for 12 to 24 h prior to assay.
# cAMP Stimulation. Stimulation of cells with peptide analogs was performed in 24-well plates. Cells were rinsed with 0.5 mL of binding buffer (50 mM Tris-HCl, 100 mM NaCl, 5 mM KCl, 2 mM CaCl2, 5% heat-inactivated horse serum, 0.5% fetal bovine serum, adjusted to pH 7.5 with HCl) and treated with 200 μL of cAMP assay buffer (Delbecco's modified Eagle's medium containing 2 mM 3-isobutyl-1-methylxanthine, 1 mg/mL bovine serum albumin, 35 mM Hepes-NaOH, pH 7.4) and 100 μL of binding buffer containing varying amounts of peptide analog (final volume=300 μL). The medium was removed after incubation for 30 to 60 minutes at room temperature, and the cells were frozen on dry ice, lysed with 0.5 mL 50 mM HCl, and refrozen ([…]). The cAMP content of the diluted lysate was determined by radioimmunoassay. The EC50 response values were calculated using nonlinear regression (see below).
# Data Calculation. Calculations were performed using Microsoft® Excel. Nonlinear regression analyses of binding and cAMP dose-response data were performed using the four-parameter equation: yp=Min+[(Max−Min)/(1+(IC50/x)^slope)]. The Excel Solver function was utilized for parameter optimization, as described previously (Carter, P. H., et al., Endocrinology 140: 4972-4981 (1999); Bowen, W. P., and Jerman, J. C., Trends in Pharmacol. Sci. 16: 413-417 (1995)). Differences between paired data sets were statistically evaluated using a one-tailed Student's t-test, assuming unequal variances for the two sets.
# Agonist activities of selected analogs in cells expressing P1R-delNt were examined. This PTH-1 receptor construct lacks most of the N domain, but nevertheless mediates full agonist responses to N-terminally modified PTH analogs, and thus enables the relative roles of the receptor's N and J domains to the ligand interaction process to be evaluated. The clonal cell line LdelNT-2 was used, which was derived from LLC-PK, cells by stable transfection with a plasmid encoding the human P1R-delNt construct.
# hP1R = target: T2, hP1R (Homo sapiens, UniProt Q03431); experiment: Stimulation of inositol phosphate production / phospholipase C in COS-7 cells; format: cell-based
# T2 construct: expressed in transfected cells; host or cells: COS-7, transient transfection (FuGENE 6)
# T2 sequence (Q03431 27-593): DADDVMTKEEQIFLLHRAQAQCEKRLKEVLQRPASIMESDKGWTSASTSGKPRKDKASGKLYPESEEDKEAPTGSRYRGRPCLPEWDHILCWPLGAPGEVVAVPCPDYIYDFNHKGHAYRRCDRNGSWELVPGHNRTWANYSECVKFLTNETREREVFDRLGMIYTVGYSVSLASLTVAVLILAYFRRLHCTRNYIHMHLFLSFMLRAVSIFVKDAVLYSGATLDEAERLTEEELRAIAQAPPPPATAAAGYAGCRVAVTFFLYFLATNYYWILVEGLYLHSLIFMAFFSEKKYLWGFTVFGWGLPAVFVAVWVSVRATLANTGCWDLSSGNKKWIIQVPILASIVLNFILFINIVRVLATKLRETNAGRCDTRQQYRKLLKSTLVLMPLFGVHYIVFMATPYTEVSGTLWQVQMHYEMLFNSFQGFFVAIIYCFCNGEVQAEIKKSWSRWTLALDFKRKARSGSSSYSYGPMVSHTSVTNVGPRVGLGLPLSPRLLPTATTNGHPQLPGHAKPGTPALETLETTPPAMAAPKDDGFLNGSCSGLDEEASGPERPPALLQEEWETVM
# Excerpt: Cell Culture. The cell line HKRK-B28 (Takasu, H., et al., J. Bone Miner. Res. 14:11-20 (1999)) was derived from the porcine kidney cell line, LLC-PK1 by stable transfection with plasmid DNA encoding a recombinant P1R chimera comprised of the opposum P1R from the N-terminus to the mid region of TM3 and the rat P1R from the mid region of TM3 to the C-terminus. The surface density of the P1R in these cells is ˜280,000 receptors per cell. The clonal cell line LdelNt-2 was derived from LLC-PK, cells via stable transfection with a plasmid encoding P1R-delNt, a recombinant human PTH-1 receptor construct in which most of the amino-terminal extracellular domain is deleted. These cells, as well as COS-7 cells and SaOS-2-B10 cells, were cultured at […] in T-75 flasks ([…]) in Dulbecco's modified Eagle's medium (DMEM) supplemented with fetal bovine serum (10%), penicillin G (20 units/ml), streptomycin sulfate (20 μg/ml) and amphotericin B (0.05 μg/ml) in a humidified atmosphere containing 5% CO2. […]
# Stimulation of Inositol Phosphate Production. […] The lysate was then applied to an ion exchange column (0.5 mL resin bed) and the total inositol phosphates were eluted as described previously (Berridge, M. J., et al., Biochem. J. 212:473-482 (1983)), and counted in liquid scintillation cocktail.
structure (smiles),measurement,setting,value
"CC[C@H](C)[C@H](NC(=O)[C@H](CCC(=O)O)NC(=O)C(C)(C)NC(=O)[C@@H](NC(=O)C1(N)CCCC1)C(C)C)C(=O)N[C@@H](CCC(N)=O)C(=O)N[C@@H](CC(C)C)C(=O)N[C@@H](CCSC)C(=O)N[C@@H](Cc1c[nH]cn1)C(=O)N[C@@H](CCC(N)=O)C(=O)N[C@@H](CCCCNC(=N)N)C(=O)N[C@@H](C)C(=O)N[C@@H](CCCCN)C(=O)N[C@@H](Cc1c[nH]c2ccccc12)C(N)=O [[Ac5c^1,Aib^3,M]PTH(1-14), [Ac5c^1,Aib^3,Gln^10,Har^11,Ala^12,Trp^14]PTH(1-14)NH2] (H-[Ac5c]V[Aib]EIQLMHQ[hArg]AKW-NH2)",EC50,hP1R-delNt,6.4 ± 2.3 nM
same,increase in cAMP accumulation (Emax) over basal,hP1R-delNt,70 fold
same,maximum cAMP response,hP1R-delNt,125±19 picomoles of cAMP per well
same,"potency for stimulating phospholipase C relative to [Aib1,3,M]PTH(1-14)",hP1R,2 fold
